The values below are quoted from earlier work in patent US12491200B2, “Compositions and methods using cannabinoids for treating stammering/stuttering and symptoms of Tourette syndrome” (priority 2019, dated 2025).

One data set relates to tic disorders. To be noted: for tic symptom score: compared with placebo; for most common adverse events: tic disorders.
The next data set has as its system Tourette syndrome. To be noted: patients aged between 16 and 19; very high doses.

`O=C1CCc2ccc(OCCCCN3CCN(c4cccc(Cl)c4Cl)CC3)cc2N1` [aripiprazole]: in the data set on tic disorders, the tic symptom score result was “significantly improve tic symptom score”; the “most common adverse events” value is “dizziness, nausea, and dry mouth”. As to `O=C(CCCN1CCC(O)(c2ccc(Cl)cc2)CC1)c1ccc(F)cc1` [haloperidol], in the data set on tic disorders, the tic symptom score entry is “significantly improve tic symptom score”; the “most common adverse events” value is “drowsiness, extrapyramidal reactions, and dry mouth”. Moreover, in the data set with developmental stuttering, the speech fluency result is “improve speech fluency”. Regarding `N[C@@H](Cc1ccc(O)c(O)c1)C(=O)O` [levodopa], the speech fluency result with developmental stuttering is “worsening speech fluency”. Take `OCCOCCN1CCN(C2=Nc3ccccc3Sc3ccccc32)CC1` [quetiapine]: the tic symptom score result in the data set on tic disorders is listed as “significantly improve tic symptom score”. Regarding `Cc1nc2n(c(=O)c1CCN1CCC(c3noc4cc(F)ccc34)CC1)CCCC2` [risperidone], in the data set on tic disorders, the tic symptom score entry was “significantly improve tic symptom score”; the “most common adverse events” value is “drowsiness and appetite”. Moreover, the speech fluency entry in the data set on developmental stuttering is listed as “improve speech fluency”.

As to `CCCCCc1cc(O)c2c(c1)OC(C)(C)[C@@H]1CCC(C)=C[C@@H]21` [synthetic THC, delta-9-tetrahydrocannabinol], the “symptoms such as vocal blocking tics and comorbid conditions” value with Tourette syndrome is on record as “significant improvement”. For the compound `CCN(CC)CCNC(=O)c1cc(S(C)(=O)=O)ccc1OC` [tiapride], the “most common adverse events” value with tic disorders is “dizziness, nausea, and dry mouth”.

For the compound `O=C1Cc2cc(CCN3CCN(c4nsc5ccccc45)CC3)c(Cl)cc2N1` [ziprasidone], the tic symptom score result with tic disorders was “significantly improve tic symptom score”.
